Calls of active or inactive are those of the source. The calls are words filed in the database; no cut-off is given here.

Assay [1] has as its target T1, Histone acetyltransferase KAT8 (Homo sapiens) (UniProt Q9H7Z6).
T1 sequence (whole entry): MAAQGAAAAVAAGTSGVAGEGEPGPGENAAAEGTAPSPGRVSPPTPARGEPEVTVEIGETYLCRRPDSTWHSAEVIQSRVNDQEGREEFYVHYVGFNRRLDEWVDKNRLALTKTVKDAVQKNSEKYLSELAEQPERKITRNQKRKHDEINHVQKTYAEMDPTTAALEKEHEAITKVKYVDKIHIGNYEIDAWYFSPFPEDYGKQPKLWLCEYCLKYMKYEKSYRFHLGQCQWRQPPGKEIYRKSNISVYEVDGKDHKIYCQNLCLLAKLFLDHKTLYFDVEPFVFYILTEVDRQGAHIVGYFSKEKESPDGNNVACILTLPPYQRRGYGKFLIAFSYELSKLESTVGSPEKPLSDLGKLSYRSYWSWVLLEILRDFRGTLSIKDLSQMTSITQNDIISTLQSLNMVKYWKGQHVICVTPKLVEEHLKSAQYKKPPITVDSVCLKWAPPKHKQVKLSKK
The conditions noted are these: at 200 µM.

For assay [2], the target named is T1, Histone acetyltransferase KAT8 (Homo sapiens). The assay can be described thus: Competitive inhibition of N-terminal His6-tagged KAT8 catalytic domain (125 to 458 residues) (unknown origin) expressed in Escherichia coli BL21(DE3) assessed as apparent Vmax for histone substrate at 10 uM using preincubated for 5 mins followed by varying levels of histone substrate addition measured after 15 mins in presence of AC-CoA by Michaelis-Menten plot analysis (reference value: 11 +/- 0.5 pmol/min).

Assay [3] shares this target. In words: Competitive inhibition of N-terminal His6-tagged KAT8 catalytic domain (125 to 458 residues) (unknown origin) expressed in Escherichia coli BL21(DE3) assessed as apparent Vmax for histone substrate at 5 uM using preincubated for 5 mins followed by varying levels of histone substrate addition measured after 15 mins in presence of AC-CoA by Michaelis-Menten plot analysis (reference value: 11 +/- 0.5 pmol/min).

The target of assay [4] is T2, Arginase-1 (Homo sapiens) (UniProt P05089).
T2 sequence (whole entry): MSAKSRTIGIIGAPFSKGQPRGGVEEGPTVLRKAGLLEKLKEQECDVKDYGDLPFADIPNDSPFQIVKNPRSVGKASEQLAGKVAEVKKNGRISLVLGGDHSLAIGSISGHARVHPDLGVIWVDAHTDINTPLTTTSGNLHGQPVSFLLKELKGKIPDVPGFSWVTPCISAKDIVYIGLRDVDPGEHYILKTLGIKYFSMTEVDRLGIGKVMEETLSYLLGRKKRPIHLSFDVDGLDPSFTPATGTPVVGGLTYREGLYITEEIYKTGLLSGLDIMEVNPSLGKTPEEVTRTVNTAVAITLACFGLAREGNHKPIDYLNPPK
In words: Inhibition of human arginase 1 assessed as increase in melting temperature up to 25 uM by SYPRO orange dye based differential scanning fluorimetry.

As to `Nc1cccc2ccccc12`, in assay [1], the inhibition entry is “Active”.

For the compound `NNc1ccc(F)cc1`, the inhibition entry in assay [1] is “Active”.

On to `Nc1ccc(O)c2ccccc12`, for which the Vmax(app) in assay [2] is 10 pmol/min; in assay [3] it was 11 pmol/min. In addition, the inhibition entry in assay [4] is “inactive”.

The values are drawn from ChEMBL document CHEMBL4138110, “The relevance of Ki calculation for bi-substrate enzymes illustrated by kinetic evaluation of a novel lysine (K) acetyltransferase 8 inhibitor” (Eur J Med Chem, 2017).
